Values after ≈ are worked out from the molar mass of the structure shown.
Columns and labels:
ABCG2 = target: T1, ABCG2 (Homo sapiens, UniProt Q9UNQ0); test: Impact of ABCG2 on cytotoxicity, SRB assay, MCF7-MX vs MCF7
T1 sequence (Q9UNQ0 1-655): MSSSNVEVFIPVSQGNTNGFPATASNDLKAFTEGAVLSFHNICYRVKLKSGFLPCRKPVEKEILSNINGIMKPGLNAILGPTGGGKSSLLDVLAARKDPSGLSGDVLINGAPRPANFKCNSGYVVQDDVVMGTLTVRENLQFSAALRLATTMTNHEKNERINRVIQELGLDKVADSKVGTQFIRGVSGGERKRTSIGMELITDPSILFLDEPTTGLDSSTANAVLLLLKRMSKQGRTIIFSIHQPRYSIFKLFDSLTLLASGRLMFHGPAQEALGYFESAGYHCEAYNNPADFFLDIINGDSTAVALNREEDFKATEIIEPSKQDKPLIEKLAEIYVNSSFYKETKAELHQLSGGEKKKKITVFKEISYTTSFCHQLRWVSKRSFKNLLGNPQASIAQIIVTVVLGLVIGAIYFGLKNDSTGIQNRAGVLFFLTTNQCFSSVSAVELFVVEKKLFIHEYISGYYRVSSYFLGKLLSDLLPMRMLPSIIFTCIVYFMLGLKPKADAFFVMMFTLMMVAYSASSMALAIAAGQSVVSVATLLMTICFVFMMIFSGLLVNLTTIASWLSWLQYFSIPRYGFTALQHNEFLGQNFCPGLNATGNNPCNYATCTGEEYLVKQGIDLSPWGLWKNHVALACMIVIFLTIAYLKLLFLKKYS

[1] = test system: CHO cells deficient in DNA repair; test: Growth inhibition in cell lines deficient in DNA repair machinery; assay type: cell-based
KELLY = test: Growth inhibition, SRB assay, 72 hours; assay type: cell-based; conditions: KELLY neuroblastoma
HCT116 cells = test: Growth inhibition (GI50); assay type: cell-based, human
Source text: Different treatment scheduling are shown. […] The results are mean of n=6.

γH2AX = γH2AX foci formation (DNA damage marker); conditions: in vitro and in vivo
A2780 = test: Phospho-AKT levels by western blotting; assay type: cell-based, human; conditions: ovarian cancer cell line A2780
HCT116 tumours = test: Phospho-AKT levels in HCT116 tumours; assay type: in vivo, mice
HCT116 xenograft = test: Biomarkers screening in HCT116 xenograft tumours; assay type: in vivo, mice
Protocol: FIG. 5. Anti-tumour activity of HDAC-C1A in A2780 (A & B) and HCT116 (C & D) xenograft models (Tumours volumes relative to tumour volume at day 1 (A & C) and corresponding body weight (relative to body weight at day 1) (B & D)). E. Biomarkers screening at early time points following a single injection of HDAC-C1A in HCT116 xenograft at 40 mg/kg compared to a continuous 14 days treatment at the indicated dose. Tumours were excised 6 hours following the last injection.
(§1) The drug was stable after oral, parenteral and intravenous administration for 24 h (last time point examined). […] The Cma and AUC0-24h following i.p. injection (20 mg/kg) were 3.2 μg/mL and 11.2 μg/mL*h, respectively. […] The acid instability of HDAC-C1A could therefore be improved by enteric coating as a means to avoid breakdown in the stomach. […] HDAC-C1A was also tested in HCT116 human colon cancer xenograft model using a refined dose and scheduling. […] This dose was non-toxic (no reduction in body weight) (FIG. 5.D). The acetylated form of α-tubulin (biomarker of response to HDAC6 inhibition) could be observed after 14 days of treatment and could be detected as early as 6 hours after the 1st injection (FIG. 5.E.). The acetylated form of Histone 3 (biomarker of response of class I histones) could be observed as early as 2 hours after the 1st injection and remain after 14 days of treatment (FIG. 5.E).

[2] = Pharmacokinetics following a single injection; assay type: in vivo
Protocol: FIG. 4. Pharmacokinetic profile of HDAC-C1A following a single injection at 20 mg/kg.
FIG. 22 (Table 3): Pharmacokinetic data of HDAC-C1A following a single injection.
as §1

HDAC1 = HDAC1 (Homo sapiens, UniProt Q13547); test: Enzyme inhibition activity, Fluor-de-Lys kit; assay type: biochemical
[3] = homologous recombination repair

Sequence of HDAC1 (Q13547 whole entry): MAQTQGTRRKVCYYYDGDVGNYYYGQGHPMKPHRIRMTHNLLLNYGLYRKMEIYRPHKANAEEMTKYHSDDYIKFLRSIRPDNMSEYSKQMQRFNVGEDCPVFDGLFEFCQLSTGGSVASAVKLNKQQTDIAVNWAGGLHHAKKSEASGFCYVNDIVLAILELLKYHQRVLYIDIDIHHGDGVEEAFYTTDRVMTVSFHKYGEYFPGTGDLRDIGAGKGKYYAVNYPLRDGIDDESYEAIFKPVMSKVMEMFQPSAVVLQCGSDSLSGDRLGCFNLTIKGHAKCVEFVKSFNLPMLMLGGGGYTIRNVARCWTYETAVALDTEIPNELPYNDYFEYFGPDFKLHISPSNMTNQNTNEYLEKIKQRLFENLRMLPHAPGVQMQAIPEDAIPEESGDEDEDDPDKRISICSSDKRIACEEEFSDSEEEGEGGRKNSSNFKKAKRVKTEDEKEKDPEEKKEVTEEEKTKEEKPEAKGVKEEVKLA

CC(/C=C/C(=O)NO)=C\c1ccc(NS(=O)(=O)c2ccc(N(CCCl)CCCl)cc2)cc1 [HDAC-C1A]
fold resistance (GI50 ratio) MCF7-MX vs parental MCF7 (ABCG2; ABCG2 overexpressing): 2.8 fold
reversal of resistance by FTC in MCF7-MX cells (ABCG2; FTC, specific inhibitor of ABCG2): 5.2 fold
sensitivity (GI50 ratio) of cells deficient in XRCC3 vs proficient [1, 3]: as sensitive as the parental proficient cell lines
sensitivity (GI50 ratio, fold) of cells deficient in XRCC2 vs proficient [1, 3]: as sensitive as the parental proficient cell lines
sensitivity (GI50 ratio, fold) of cells deficient in XRCC5 vs proficient ([1]; non homologous end joining): as sensitive as the parental proficient cell lines
sensitivity (GI50 ratio) of cells deficient in ERCC1 vs proficient ([1]; nucleotide excision repair): as sensitive as the parental proficient cell lines
sensitivity of cells deficient in XPB vs proficient ([1]; nucleotide excision repair): as sensitive as the parental proficient cell lines
GI50 (KELLY): 0.14 µg/mL (≈ 0.281 µM)
GI50 (HCT116 cells): 3.7 µM
γH2AX foci formation (γH2AX): time and a dose dependent increase
P-AKT levels (A2780): increased
P-AKT in tumours (HCT116 tumours; HDAC-C1A alone 20 mg/kg, 6 hours): up-regulation
P-AKT in tumours (HCT116 tumours; HDAC-C1A combined with API-2, 24 hours after single injection): still showed increased P-AKT
P-AKT in tumours (HCT116 tumours; combination regimen BEZ-235 + HDAC-C1A, 6 hours): No P-AKT was detected
anti-apoptotic factor Bcl2 (HCT116 xenograft; after 48 hours): down-regulated
earliest detection of acetylated Histone 3 after 1st injection (HCT116 xenograft; single injection 40 mg/kg): 2 h
earliest detection of acetylated α-tubulin after 1st injection (HCT116 xenograft; single injection 40 mg/kg): 6 h
AUC0-24h ([2]; given orally): 94000 ng·h/mL
Cmax ([2]; given orally): 700 ng/mL
AUC0-24h ([2]; i.p. injection 20 mg/kg): 11200 ng·h/mL
Cmax ([2]; i.p. injection 20 mg/kg): 3200 ng/mL
dose proportionality of pharmacokinetics ([2]; i.p. injection, up to 160 mg/kg): dose proportionate
oral bioavailability ([2]; in vivo, po): 16%
stability after administration ([2]; oral, parenteral and intravenous, 24 h last time point): stable
fold more specific for HDAC6 compared with HDAC1 (HDAC1): approximately 17 fold
